# Test system: A375 multi-cell spheroids with HUVEC/MSC, viability
# Assay: Anticancer human tumor A375 cell line growth inhibition [GQUAD];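 note: spheroids exposed to compounds for seven days before readout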
# Conditions: for IC50: curve of first compound; for viability, T/C: stronger effect = lower value
# Source text: DNA G-quadruplex Stabilizer Agents in Combinations in Complex Spheroids
# A high-throughput screen of multi-cell type tumor spheroids was designed to identify active combinations of DNA G-quadruplex stabilizer agents and targeted small molecules. Complex spheroids include a stromal component modeled by human endothelial cells (HUVEC) and fibroblasts modeled by human mesenchymal stem cells (MSCs). The concentration ranges selected for each drug and investigational agent were based upon clinically achievable concentrations if the clinical Cmax of the agent was known.
# Compounds. The drugs and investigational agents: pidnarulex (CX-5461; NSC782164), APTO-253 (NSC789042), BRACO-19 (NSC847499), peposertib (NSC802822), ceralasertib (NSC780249), elimusertib (NSC800525), camonsertib (NSC841442), AZD-1390 (NSC803789), olaparib (NSC753686), talazoparib (NSC767125), ART-558 (NSC835418), sotorasib (NSC818433), MRTX-1133 (NSC836407), SN-38 (NSC673596), topotecan (NSC609699), etoposide (NSC141540), doxorubicin (NSC123127), gemcitabine (NSC613327), 5-fluorouracil (NSC19893), paclitaxel (NSC125973), vemurafenib (NSC761431), panobinostat (NSC761190), R-306465 (JNJ-16241199; NSC773264), adavosertib (NSC754352), TP-3654 (NSC805149), carboplatin (NSC241240), KSQ-4279 (NSC840948), and staurosporine (NSC755774) were obtained from the National Cancer Institute (NCI) Developmental Therapeutics Program Chemical Repository (34). The FDA-approved anticancer drug set is available from the NCI Developmental Therapeutics Program. […] The stock solutions were prepared in dimethyl sulfoxide (DMSO, Sigma-Aldrich, St. Louis, MO, cat. D2650) at 800-fold the tested concentration and stored at -70 degrees C prior to their use. All drugs and investigational agents were tested over a range starting from a high concentration at or near the clinical Cmax and decreasing in half-log increments. If the clinical Cmax for an agent had not been determined, the highest concentration tested was 10 microM.
# 2.3 Cell Culture. All cells were maintained in an incubator at 37 degrees C and 5% CO2 with 95% humidity. The PDC lines were cultured according to standard operating procedures established by the NCI PDMR. All PDCs were thawed and cultured in Matrigel-coated flasks prepared with a working solution of 1X Ham's F-12 nutrient mix, without supplementation (Invitrogen, cat. 11765054), 100 U/mL penicillin-streptomycin (Invitrogen, cat. 15140122), and 2.5% Matrigel (Corning Inc., cat. 354248) for the first three passages. The 857933-349-R-J2-PDC line was cultured in 6C/Colon 1B media, which includes advanced DMEM/F-12 (Thermo Fisher Scientific, cat. 12634028), 10 mM HEPES (Thermo Fisher Scientific, cat. 15630080), 1X GlutaMAX supplement (Thermo Fisher Scientific, cat. 35050061), 0.1 mg/mL primocin (InvivoGen, cat. ant-pm-2), 10% defined fetal bovine serum, heat inactivated (HyClone Laboratories Inc., cat. SH30070.03HI), 50% L-WRN conditioned media (ATCC, cat. CRL-3276), 1.25 mM N-Acetyl-L-cysteine (Sigma-Aldrich, cat. A9165), 10 mM nicotinamide (Sigma-Aldrich, cat. N0636), 1X B-27 supplement (Thermo Fisher Scientific, cat. 17504044), 1X N-2 supplement (Thermo Fisher Scientific, cat. 17502048), 10 microM Y-27632 dihydrochloride (Tocris Bioscience, cat. 1254), and 50 ng/mL human EGF recombinant protein (Thermo Fisher Scientific, cat. PHG0311). The 485176-168-R4-J1-PDC line was cultured in Panc media, which includes all 6C/Colon 1B media components plus 100 ng/mL human FGF-10 (Thermo Fisher Scientific, cat. 100-26), 500 nM SB-431542 (Selleckchem, cat. S1067), and gastrin (Tocris, cat. 3006).
# […]
structure (smiles),measurement,setting,value
CCCS(=O)(=O)Nc1ccc(F)c(C(=O)c2c[nH]c3ncc(-c4ccc(Cl)cc4)cc23)c1F + Cc1cnc(CNC(=O)c2c(=O)c3ccc(N4CCCN(C)CC4)nc3n3c2sc2ccccc23)cn1,IC50,second compound 0.0316 µM,< 31.6 nM
same,IC50,second compound 0.1 µM,< 31.6 nM
same,IC50,second compound 0.316 µM,< 31.6 nM
same,IC50,second compound 1 µM,< 31.6 nM
same,IC50,second compound 3.16 µM,< 31.6 nM
same,IC50,second compound 10 µM,< 31.6 nM
same,"viability, T/C","second compound 0.0316 µM, first compound 0.0316 µM",34.1%
same,"viability, T/C","second compound 0.0316 µM, first compound 0.1 µM",16.2%
same,"viability, T/C","second compound 0.0316 µM, first compound 0.316 µM",9.28%
same,"viability, T/C","second compound 0.0316 µM, first compound 1 µM",8.24%
same,"viability, T/C","second compound 0.0316 µM, first compound 3.16 µM",5.87%
same,"viability, T/C","second compound 0.0316 µM, first compound 10 µM",7.01%
same,"viability, T/C","second compound 0.1 µM, first compound 0.0316 µM",27.9%
same,"viability, T/C","second compound 0.1 µM, first compound 0.1 µM",14.7%
same,"viability, T/C","second compound 0.1 µM, first compound 0.316 µM",10.1%
same,"viability, T/C","second compound 0.1 µM, first compound 1 µM",6.6%
same,"viability, T/C","second compound 0.1 µM, first compound 3.16 µM",5.83%
same,"viability, T/C","second compound 0.1 µM, first compound 10 µM",5.93%
same,"viability, T/C","second compound 0.316 µM, first compound 0.0316 µM",23.5%
same,"viability, T/C","second compound 0.316 µM, first compound 0.1 µM",14%
same,"viability, T/C","second compound 0.316 µM, first compound 0.316 µM",7.97%
same,"viability, T/C","second compound 0.316 µM, first compound 1 µM",6.65%
same,"viability, T/C","second compound 0.316 µM, first compound 3.16 µM",5.74%
same,"viability, T/C","second compound 0.316 µM, first compound 10 µM",3.51%
same,"viability, T/C","second compound 1 µM, first compound 0.0316 µM",21.8%
same,"viability, T/C","second compound 1 µM, first compound 0.1 µM",13.2%
same,"viability, T/C","second compound 1 µM, first compound 0.316 µM",8.1%
same,"viability, T/C","second compound 1 µM, first compound 1 µM",6.44%
same,"viability, T/C","second compound 1 µM, first compound 3.16 µM",6.08%
same,"viability, T/C","second compound 1 µM, first compound 10 µM",2.62%
same,"viability, T/C","second compound 3.16 µM, first compound 0.0316 µM",16.2%
same,"viability, T/C","second compound 3.16 µM, first compound 0.1 µM",11.3%
same,"viability, T/C","second compound 3.16 µM, first compound 0.316 µM",8.15%
same,"viability, T/C","second compound 3.16 µM, first compound 1 µM",7.91%
same,"viability, T/C","second compound 3.16 µM, first compound 3.16 µM",6.35%
same,"viability, T/C","second compound 3.16 µM, first compound 10 µM",0.08%
same,"viability, T/C","second compound 10 µM, first compound 0.0316 µM",16%
same,"viability, T/C","second compound 10 µM, first compound 0.1 µM",13.5%
same,"viability, T/C","second compound 10 µM, first compound 0.316 µM",8.99%
same,"viability, T/C","second compound 10 µM, first compound 1 µM",7.73%
same,"viability, T/C","second compound 10 µM, first compound 3.16 µM",6.2%
same,"viability, T/C","second compound 10 µM, first compound 10 µM",0.13%

# Source: PubChem BioAssay AID2060485 (Molecular Pharmacology Branch, DTP, NCI, 2025)
